# Experimental data published in article PMC12763877 (Journal of Experimental & Clinical Cancer Research : CR, 2025).
# pKd: −log10 of the molar value.
# Key:
# HUVEC [1] = assay: Wound healing and Transwell assays; format: cell-based, human; settings: candesartan 15, 7.5, 3.75 µM; sunitinib 2 µM; 48 h
# Procedure: HUVEC cells were digested and inoculated into 6-well plates, with 1 × 10^5 cells added to each hole. On the second day, the gun head was drawn vertically along the edge of the upper lid of the hole plate. The cells were washed twice with PBS, the scratched cells were removed, and the serum free medium containing drugs was added. The photos were taken and recorded under the microscope for 0 h and cultured in a 5% CO2 incubator at 37℃. After 48 h, the sample was taken and photographed for recording. The cell scratch area was calculated with Image J software.
# Migration assays were performed using the Transwell cell culture insert. HUVEC (3 × 10^4 cells) were suspended with 100µL serum-free medium containing different concentrations of compounds and placed in the upper layer of the Transwell cell culture insert, and 300µL medium containing 10% FBS was placed below the cell-permeable membrane. Following an incubation (48 h), the cells that had migrated through the membrane were stained with 0.2% crystal violet for 30 min and count.
# HUVEC [2] = assay: DNA damage: γ-H2AX western blot and alkaline comet assay; format: cell-based, human
# Procedure: Total protein was extracted using RIPA lysis buffer (Solarbio, China) supplemented with phenylmethylsulfonyl fluoride (PMSF; Thermo Fisher Scientific, USA), protease inhibitor cocktail (Roche, Switzerland), and phosphatase inhibitor cocktail (Roche, Switzerland). Protein concentration was determined using a BCA protein assay kit (Thermo Fisher Scientific, USA). Equal amounts of protein were separated by 10% SDS-polyacrylamide gel electrophoresis (SDS-PAGE) and transferred onto nitrocellulose (NC) membranes. […] All primary antibodies were purchased from Cell Signaling Technology (CST, USA), except for GAPDH, which was obtained from Proteintech (Wuhan, China). After washing, the membranes were incubated with HRP-conjugated goat anti-rabbit or anti-mouse IgG secondary antibodies (Biosharp, China) for 1 h at room temperature. Protein bands were visualized using an enhanced chemiluminescence (ECL) detection system and scanned using a chemiluminescence imaging system.
# APLNR = molecular target: T1, APLNR (Homo sapiens, UniProt P35414); assay: Surface plasmon resonance (Biacore T200); settings: APLNR on CM5 chip, 0.390625-12.5 µM, 1:1 kinetic binding model; read-out: equilibrium dissociation constant (KD)
# T1 sequence (P35414 1-380): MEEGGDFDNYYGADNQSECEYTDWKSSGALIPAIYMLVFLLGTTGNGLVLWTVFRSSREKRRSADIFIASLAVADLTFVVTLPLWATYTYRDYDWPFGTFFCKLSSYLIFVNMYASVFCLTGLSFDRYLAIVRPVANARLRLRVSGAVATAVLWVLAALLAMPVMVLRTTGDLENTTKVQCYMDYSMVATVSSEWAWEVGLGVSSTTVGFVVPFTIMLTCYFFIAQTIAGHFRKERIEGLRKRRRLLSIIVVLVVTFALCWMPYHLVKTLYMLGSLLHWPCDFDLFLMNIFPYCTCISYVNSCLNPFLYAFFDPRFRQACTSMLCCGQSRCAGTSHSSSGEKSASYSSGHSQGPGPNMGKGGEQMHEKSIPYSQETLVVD
# Procedure: SPR, which is a reliable method for analyzing real-time biomolecular interactions without labeling, was utilized to identify the binding affinity between APLNR and Candesartan. Candesartan is diluted with sterile phosphate-buffered saline (PBS). The APLNR protein is immobilized on a CM5 sensor chip via coupling, and then different concentrations of Candesartan (12.5 µM, 6.25 µM, 3.125 µM, 1.5625 µM, 0.78125 µM, 0.390625 µM) are injected. The Biacore T200 system can continuously and real-time monitor the changes in resonance units (RU), thereby obtaining the binding situation of candesartan with APLNR. The entire sensorgram is fitted using a 1:1 kinetic binding model, and the equilibrium dissociation constant (KD) is calculated.
# To further analyze the binding capacity of candesartan to APLNR, we conducted surface plasmon resonance (SPR) analysis to determine the binding affinity between candesartan and APLNR. […] This gradual increase in RU values indicates specific binding of candesartan to APLNR.
# [3] = test system: zebrafish retinal vasculature; assay: Zebrafish hypoxia-induced retinal vascular abnormality model; format: in vivo, zebrafish (Danio rerio); settings: CoCl2 5 mM + GS401 2.5 ug/ml; compounds at concentrations < LD50 (A-2 1 µM); imaged at 5 dpf
# Procedure: Transgenic zebrafish Tg(flk: EGFP) were obtained from the China Zebrafish Resource Center and maintained at 28 ± 1 °C under a 14-hour light/10-hour dark cycle. […] Survival rates were recorded to calculate the median lethal concentration (LC₅₀). For the retinal angiogenesis assay, embryos at 1 day post fertilization (dpf) were transferred to E3 medium containing 5 mM CoCl₂·6 H₂O and 2.5 µg/mL GS4012 to induce hypoxia and abnormal vessel formation. At 3 dpf, test compounds were added and incubation continued until 5 dpf. Blank, model, and vehicle (≤ 0.1% DMSO) controls were included, with at least three replicates per group (n = 10–15 embryos). At 5 dpf, retinal vasculature was imaged using fluorescence microscopy and analyzed for branching number, vessel length, and density using ImageJ. Data are presented as mean ± standard deviation (SD) and analyzed using one-way ANOVA followed by Tukey’s post hoc test, with p < 0.05 considered statistically significant.
# Furthermore, we established a hypoxia-induced vascular dysregulation model with CoCl2 (5mM) and a VEGF inductive agent GS401 (2.5 ug/ml) in zebrafish embryos to assess the capacity of candidate compounds to regulate vascular normalization. Following Zebrafish toxicity profiling, 8 candidate compounds were administered at optimized concentrations (< LD50) to treat the zebrafish vascular abnormality model separately. […]
compound,measurement,setting,value
"CCOc1nc2cccc(C(=O)O)c2n1Cc1ccc(-c2ccccc2-c2nnn[nH]2)cc1 [Compound A-2, Candesartan]",Migratory and invasive capacities of HUVECs,HUVEC [1],significantly reduced the migratory and invasive capacities of HUVECs
same,DNA fragmentation (comet assay),HUVEC [2],increased DNA fragmentation
same,γ-H2AX expression,"HUVEC [2]; western blot, 48 h",dose-dependent increase
same,pKd,APLNR,5.77
same,"Effect on hypoxia-induced retinal vascular pathology (ectopic branching, vascular architecture)",[3],markedly attenuated these pathological features
